Read-outs that look alike come from different tables or passages of the source.
Experiments:
rAtACBP5 = target: T1, rAtACBP5 (Arabidopsis thaliana, UniProt Q8RWD9); test: ITC of acyl-CoA esters binding to rAtACBP5; conditions: for n: mean of three experiments±S.D., stoichiometry of ligand-to-protein binding; for ΔG: in kcal/mol
T1 sequence (Q8RWD9 1-648): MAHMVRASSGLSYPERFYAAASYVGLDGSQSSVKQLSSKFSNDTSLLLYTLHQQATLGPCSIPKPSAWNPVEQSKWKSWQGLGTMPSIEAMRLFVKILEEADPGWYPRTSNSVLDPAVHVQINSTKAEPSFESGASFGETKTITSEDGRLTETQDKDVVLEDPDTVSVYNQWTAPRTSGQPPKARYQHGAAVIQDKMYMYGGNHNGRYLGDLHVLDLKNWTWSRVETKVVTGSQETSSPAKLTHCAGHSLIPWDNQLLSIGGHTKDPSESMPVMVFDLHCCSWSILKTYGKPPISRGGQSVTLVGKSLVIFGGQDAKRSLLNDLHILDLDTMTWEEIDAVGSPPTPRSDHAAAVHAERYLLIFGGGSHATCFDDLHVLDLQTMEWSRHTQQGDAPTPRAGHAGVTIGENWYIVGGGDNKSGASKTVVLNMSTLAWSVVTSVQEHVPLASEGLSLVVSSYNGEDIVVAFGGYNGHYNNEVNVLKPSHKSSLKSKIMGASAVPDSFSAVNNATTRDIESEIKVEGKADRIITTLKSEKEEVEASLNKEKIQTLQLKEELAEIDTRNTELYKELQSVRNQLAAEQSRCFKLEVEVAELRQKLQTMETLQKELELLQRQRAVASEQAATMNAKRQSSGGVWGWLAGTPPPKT
From the text: (§1) The protein expression plasmids containing full-length AtACBP4 and AtACBP5 cDNA were previously constructed in the vector pRSETB (Invitrogen) as pAT184 and pAT185, respectively. Recombinant (His)6-AtACBP4 and (His)6-AtACBP5 proteins (rAtACBP4 and rAtACBP5) were expressed in Escherichia coli, purified and refolded according to Leung et al.. The coding sequence of AtACBP6 was amplified by PCR with primer pairs ACBP-F1 and ACBP-R1 and cloned into expression vector pEXP5-NT/TOPO (Invitrogen) to generate plasmid pEXP-ACBP6. Sequences of primers are listed in Supplementary Table S1. Recombinant (His)6-AtACBP6 (rAtACBP6) was expressed in E. coli and purified following Chye. The three recombinant proteins were dialysed in 10 mM sodium phosphate buffer (pH 7.0). Protein concentrations were determined by the standard Bradford assay (Bio-Rad).
(§2) Calorimetric titration was performed with a MicroCal iTC200 system (GE Healthcare) at 30°C. Long-chain acyl-CoA esters (Avanti Polar Lipids, Inc.) were dissolved in 10 mM sodium phosphate buffer (pH 7.0) to a final concentration of 0.25, 0.5 and 1 mM. The solution was degassed and loaded into a syringe, while 15 μM rAtACBP6, 6 μM rAtACBP4 or 60 μM rAtACBP5, was placed into the sample cell. For all titrations, 1.8 μl ligand was injected into the sample cell at 150 s intervals with a stirring speed of 1000 rpm. The titrations were completed after 20 injections. All data were collected automatically, and non-specific heat effects were estimated and corrected after saturation following the instructions of the manufacturer. Raw data were integrated and analysed using the Origin v.7.0 software accompanying the calorimeter.

rAtACBP4 = target: T2, rAtACBP4 (Arabidopsis thaliana, UniProt Q9MA55); test: ITC of acyl-CoA esters binding to rAtACBP4; conditions: for n: mean of three experiments±S.D., stoichiometry of ligand-to-protein binding; for ΔG: in kcal/mol
T2 sequence (Q9MA55 1-668): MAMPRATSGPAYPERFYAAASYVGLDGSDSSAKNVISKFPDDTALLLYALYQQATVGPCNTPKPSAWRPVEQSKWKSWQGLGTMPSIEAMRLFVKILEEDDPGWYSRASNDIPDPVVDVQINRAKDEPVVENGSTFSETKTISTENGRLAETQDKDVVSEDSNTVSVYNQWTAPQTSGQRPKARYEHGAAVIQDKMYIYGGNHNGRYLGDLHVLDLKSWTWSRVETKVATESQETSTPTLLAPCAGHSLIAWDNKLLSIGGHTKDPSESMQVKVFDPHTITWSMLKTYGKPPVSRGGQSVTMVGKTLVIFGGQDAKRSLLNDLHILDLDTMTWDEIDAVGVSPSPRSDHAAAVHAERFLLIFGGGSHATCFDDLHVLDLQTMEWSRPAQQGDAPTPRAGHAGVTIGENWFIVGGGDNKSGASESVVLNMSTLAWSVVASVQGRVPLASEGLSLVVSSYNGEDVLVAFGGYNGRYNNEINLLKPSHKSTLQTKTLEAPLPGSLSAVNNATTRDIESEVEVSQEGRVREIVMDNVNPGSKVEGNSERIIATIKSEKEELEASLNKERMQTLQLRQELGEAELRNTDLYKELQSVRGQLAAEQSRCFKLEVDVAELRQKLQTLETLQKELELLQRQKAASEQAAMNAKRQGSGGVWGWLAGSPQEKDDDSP
From the text: as §1, §2

rAtACBP6 = target: T3, rAtACBP6 (Arabidopsis thaliana, UniProt P57752); test: ITC of acyl-CoA esters binding to rAtACBP6; conditions: for n: mean of three experiments±S.D., stoichiometry of ligand-to-protein binding; for ΔG: in kcal/mol
T3 construct: made in house; host or cells: Escherichia coli
T3 sequence (P57752 1-92): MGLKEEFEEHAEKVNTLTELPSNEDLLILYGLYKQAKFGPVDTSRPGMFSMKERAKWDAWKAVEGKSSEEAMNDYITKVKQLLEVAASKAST
From the text: as §1, §2

yeast ACBP = target: yeast ACBP; set-up: method as in PMID 8093000; conditions: read-out: binding affinity; cited from earlier work
10-kDa bovine ACBP = target: 10-kDa bovine ACBP; set-up: method as in PMID 8166635; conditions: read-out: binding affinity; cited from earlier work
[1] = test system: Arabidopsis seeds (Col-0 and acbp double/triple mutants); test: Seed germination under ABA treatment; type: in vivo; conditions: for seeds germinated / germination rate: 0.2 μM ABA, within 2 days
Protocol: Seeds of wild-type Arabidopsis Col-0 were purchased from the ABRC (Arabidopsis Biological Resource Center). The double and triple mutants of AtACBP4, AtACBP5 and AtACBP6 were generated by crossing the respective single mutants. To sterilize Arabidopsis seeds, a solution containing 20% bleach and 0.1% (v/v) Tween 20 was used. Seeds were subjected to 20 min vigorous shaking in this solution, washed six times in distilled water, and then spread on MS (Murashige and Skoog) medium (Sigma-Aldrich) containing 2% (w/v) sucrose, and 0, 0.2 or 0.4 μM ABA (abscisic acid). After 4°C stratification for 2 days, the plates were placed under 16 h-light/8 h-dark cycles (22°C) in a tissue culture room. The rates of seed germination were scored when radicle protrusion occurred.

[2] = ITC, 30°C, 10 mM sodium phosphate buffer pH 7.0
[3] = ITC, 30°C, 10 mM sodium phosphate buffer pH 7.0, mean of three±S.D.
[4] = ITC, 30°C, 10 mM sodium phosphate buffer pH 7.0, mean of three±S.D., read-out: Kd

| Kd (rAtACBP5; [4]) | Kd (rAtACBP4; [4]) | Kd (rAtACBP6; [4]) | SMILES | ΔS (rAtACBP5; [2]) | n (rAtACBP5; [2]) | ΔH (rAtACBP5; [3]) | ΔG (rAtACBP5; [3]) | ΔS (rAtACBP4; [2]) | n (rAtACBP4; [2]) | ΔH (rAtACBP4; [3]) | ΔG (rAtACBP4; [3]) | ΔS (rAtACBP6; [2]) | n (rAtACBP6; [2]) | ΔH (rAtACBP6; [3]) | ΔG (rAtACBP6; [3]) | further results |
| --- | --- | --- | --- | --- | --- | --- | --- | --- | --- | --- | --- | --- | --- | --- | --- | --- |
|  |  |  | CCCCCCCCCCCCCC(=O)SCCNC(=O)CCNC(=O)[C@H](O)C(C)(C)COP(=O)(O)OP(=O)(O)OC[C@H]1O[C@@H](n2cnc3c(N)ncnc32)[C@H](O)[C@@H]1OP(=O)(O)O [14:0] | 7.7 cal/(mol·K) | 0.9 | -3.7 ± 1.2 kcal/mol | −6.1±0.0 | -158 cal/(mol·K) | 1 | -53.5 ± 6.9 kcal/mol | −5.8±0.1 | -4.6 cal/(mol·K) | 1 | -11.6 ± 1.4 kcal/mol | −10.2±0.2 | Kd (rAtACBP5): 41.9 ± 2.2 µM; Kd (rAtACBP4): 65.3 ± 22.6 µM; Kd (rAtACBP6): 0.0387 ± 0.0045 µM |
| 35.4 ± 1.4 µM | 2.7 ± 1.6 µM | 0.0606 ± 0.0024 µM | CCCCCCCCCCCCCCCCCC(=O)SCCNC(=O)CCNC(=O)[C@H](O)C(C)(C)COP(=O)(O)OP(=O)(O)OC[C@H]1O[C@@H](n2cnc3c(N)ncnc32)[C@H](O)[C@@H]1OP(=O)(O)O [18:0] | -37.2 cal/(mol·K) | 1 | -17.4 ± 0.1 kcal/mol | −6.2±0.0 | -0.6 cal/(mol·K) | 1.1 ± 0.1 | -8.9 ± 1 kcal/mol | −8.7±1.0 | -6.6 cal/(mol·K) | 1 | -12 ± 2.5 kcal/mol | −10.0±0.3 |  |
| 74.4 ± 3.5 µM | 95.2 µM | 0.0453 ± 0.0043 µM | CCCCCCCC/C=C\CCCCCCCC(=O)SCCNC(=O)CCNC(=O)[C@H](O)C(C)(C)COP(=O)(O)OP(=O)(O)OC[C@H]1O[C@@H](n2cnc3c(N)ncnc32)[C@H](O)[C@@H]1OP(=O)(O)O [18:1, oleoyl-CoA] | -1.8 cal/(mol·K) | 0.9 | -6.2 ± 0.2 kcal/mol | −5.7±0.0 | -4.3 cal/(mol·K) | 2.1 | -6.9 ± 0.1 kcal/mol | −5.6±0.0 | 11.4 cal/(mol·K) | 1.9 ± 0.1 | -6.7 ± 3.8 kcal/mol | −10.2±0.1 | n (stoichiometry of ligand-to-protein binding) (rAtACBP6; ITC): 1.9 |
| 64.1 µM | 73.8 ± 0.3 µM | 0.0364 ± 0.0049 µM | CCCCC/C=C\C/C=C\CCCCCCCC(=O)SCCNC(=O)CCNC(=O)[C@H](O)C(C)(C)COP(=O)(O)OP(=O)(O)OC[C@H]1O[C@@H](n2cnc3c(N)ncnc32)[C@H](O)[C@@H]1OP(=O)(O)O [18:2, linoleoyl-CoA] | -14.7 cal/(mol·K) | 1 | -10.2 ± 0.2 kcal/mol | −5.8±0.0 | -224 cal/(mol·K) | 1 | -73.7 ± 2.6 kcal/mol | −5.8±0.2 | -6.7 cal/(mol·K) | 1.1 | -12.3 ± 1.4 kcal/mol | −10.2±0.2 |  |
|  |  |  | CC1=CC(=O)CC(C)(C)[C@@]1(O)/C=C/C(C)=C\C(=O)O [ABA, abscisic acid] |  |  |  |  |  |  |  |  |  |  |  |  | seeds germinated ([1]; Col-0 seeds): 60%; seeds germinated ([1]; acbp4acbp5acbp6 seeds): 19%; germination rate ([1]; acbp4acbp5 seeds): 40%; germination rate ([1]; acbp4acbp6 seeds): 32%; germination rate ([1]; acbp5acbp6 seeds): 33%; germination rate in comparison with Col-0 ([1]; all double and triple mutants, 0.4 μM ABA): lower germination rates |

| SMILES | Kd (rAtACBP5; [4]) | Kd (rAtACBP4; [4]) | Kd (rAtACBP6; [4]) | ΔS (rAtACBP5; [2]) | n (rAtACBP5; [2]) | ΔH (rAtACBP5; [3]) | ΔG (rAtACBP5; [3]) | ΔS (rAtACBP4; [2]) | n (rAtACBP4; [2]) | ΔH (rAtACBP4; [3]) | ΔG (rAtACBP4; [3]) | ΔS (rAtACBP6; [2]) | n (rAtACBP6; [2]) | ΔH (rAtACBP6; [3]) | ΔG (rAtACBP6; [3]) | further results |
| --- | --- | --- | --- | --- | --- | --- | --- | --- | --- | --- | --- | --- | --- | --- | --- | --- |
| CCCCCCCCCCCCCCCC(=O)SCCNC(=O)CCNC(=O)[C@H](O)C(C)(C)COP(=O)(O)OP(=O)(O)OC[C@H]1O[C@@H](n2cnc3c(N)ncnc32)[C@H](O)[C@@H]1OP(=O)(O)O [16:0, palmitoyl-CoA] | 35.7 ± 1 µM | 23.5 ± 27.1 µM | 0.0359 ± 0.0084 µM | -16.7 cal/(mol·K) | 0.9 | -11.2 ± 0.5 kcal/mol | −6.2±0.0 | -236 cal/(mol·K) | 1 | -77.4 ± 2.5 kcal/mol | −6.1±0.2 | -11.5 cal/(mol·K) | 1 ± 0.1 | -13.7 ± 2.4 kcal/mol | −10.2±0.0 | weaker binding than armadillo ACBP (rAtACBP5; rAtACBP5 versus armadillo ACBP): 1000 fold; Kd (yeast ACBP): 0.0055 µM; weaker binding than armadillo ACBP (rAtACBP4; rAtACBP4 versus armadillo ACBP): 1000 fold; Kd (10-kDa bovine ACBP): 4.5 pM |
| CC/C=C\C/C=C\C/C=C\CCCCCCCC(=O)SCCNC(=O)CCNC(=O)[C@H](O)C(C)(C)COP(=O)(O)OP(=O)(O)OC[C@H]1O[C@@H](n2cnc3c(N)ncnc32)[C@H](O)[C@@H]1OP(=O)(O)O [18:3, linolenoyl-CoA] | 92.4 ± 10.7 µM | 189 ± 0.5 µM | 0.0841 ± 0.0029 µM | -7.4 cal/(mol·K) | 1.2 ± 0.1 | -7.8 ± 1.3 kcal/mol | −5.6±0.1 | -300 cal/(mol·K) | 1 | -96.2 ± 5.3 kcal/mol | −5.1±0.0 | -7.7 cal/(mol·K) | 1.1 | -12.1 ± 1.3 kcal/mol | −9.7±0.1 |  |

Source: publication PMC4274664, “Arabidopsis cytosolic acyl-CoA-binding proteins ACBP4, ACBP5 and ACBP6 have overlapping but distinct roles in seed development” (Bioscience Reports, 2014)
